This is an account of results in patent EP2077104A1, “Micellar compositions with ophtalmic applications” (Novagali Pharma S.A., priority 2008, dated 2009).

The data set is described as follows: Zeta potential of emulsion surface. The class given is physicochemical. Conditions: 0.002% CKC in emulsion. The source says:
Thus in preferred embodiments, micellar compositions of the present invention have a positive zeta potential. As known in the art, the zeta potential is a measure of the magnitude of repulsion or attraction between particles (Washington, Adv. Drug Deliv. Reviews, 1996, 20:131-145). The Zeta potential is not measurable directly but it can be calculated using theoretical models and an experimentally-determined electrophoretic mobility or dynamic electrophoretic mobility. As known in the art, electrophoretic mobility can be determined using micro-electrophoresis or electrophoretic light scattering.
All the eye drops were supplied by Novagali Pharma (Evry, France) and were sterile with physiological pH and osmolality. The present Applicants chose to compare 0.02% BAK to 0.002% CKC since these two QAC concentrations confer equivalent positive charge to the emulsion surface (zeta potential around 20 mV).

Turning to `CCCCCCCCCCCCCCCC[N+](C)(C)Cc1ccccc1` [Cetalkonium chloride, cetalkonium chloride], the zeta potential result is on record as “around 20 mV”.
